Reference: the OligoGym collection
HELM strings list units from the 5' end as sugar, base in round brackets, then linkage (d deoxyribose, r ribose, m 2'-O-methyl, p phosphodiester). Strings are as the collection lists them; they lack the last nucleoside at the 3' end of the tested compound. [moe] = 2'-O-(2-methoxyethyl) (MOE); [sp] = phosphorothioate linkage; [m5C] = 5-methylcytosine

Molecular target: SCN2A
Experiment: mouse, dose not given
Settings: ASO

Row | Substance | 3 h FOB score
1 | RNA1{[moe](G)[sp].[moe](A)p.[moe](G)p.[moe](A)p.[moe](T)p.d(T)[sp].d(G)[sp].d([m5C])[sp].d(T)[sp].d(T)[sp].d(T)[sp].d([m5C])[sp].d([m5C])[sp].d([m5C])[sp].d(T)[sp].[moe](T)p.[moe](T)p.[moe](A)[sp].[moe](T)}$$$$ (last 3' nucleoside missing) | 1 score 0-7
2 | RNA1{[moe](T)[sp].[moe](A)p.[moe](A)p.[moe](T)p.[moe]([m5C])p.[moe](A)p.d([m5C])[sp].d(T)[sp].d(T)[sp].d(T)[sp].d([m5C])[sp].d(A)[sp].d(T)[sp].d([m5C])[sp].d([m5C])[sp].d(A)[sp].[moe]([m5C])p.[moe](G)[sp].[moe](A)}$$$$ (last 3' nucleoside missing) | 0 score 0-7
